Key:
wild type FGFR-4 = wild type FGFR-4 (Homo sapiens (Human), UniProt P22455); assay: FGFR-4 wild type assay at Km (Caliper electrophoretic mobility shift); type: biochemical; settings: wild type FGFR-4, 400 uM ATP, 25 C, 90 minutes; read-out: FGFR4 IC50
Protocol: In order to assess the activity of chemical compounds against the relevant kinase of interest, the Caliper LifeSciences electrophoretic mobility shift technology platform is utilized. Fluorescently labeled substrate peptide is incubated in the presence of dosed levels of compounds, a set concentration of kinase and of ATP, so that a reflective proportion of the peptide is phosphorylated. At the end of the reaction, the mix of phosphorylated (product) and non-phosphorylated (substrate) peptides are passed through the microfluidic system of the Caliper LabChip® EZ Reader II, under an applied potential difference. The presence of the phosphate group on the product peptide provides a difference in mass and charge between the product peptide and the substrate peptide, resulting in a separation of the substrate and product pools in the sample. As the pools pass the LEDS within the instrument, these pools are detected and resolved as separate peaks. The ratio between these peaks therefore reflects the activity of the chemical matter at that concentration in that well, under those conditions.
The reaction was stopped by the addition of 70 ul of Stop buffer (100 mM HEPES pH 7.5, 0.015% Brij 35, 35 mM EDTA and 0.2% of Coating Reagent 3 (Caliper Lifesciences)). The plate was then read on a Caliper LabChip® EZ Reader II (protocol settings: −1.9 psi, upstream voltage −700, downstream Voltage −3000, post sample sip 35S).

[1] = tested on: pMAPK (Thr202/Tyr204) in MDA-MB453 cells; assay: Detection of pMAPK (Thr202/Tyr204) using Alpha Elisa (pERK alphaLISA) in MDA-MB453 cells; type: cell-based; settings: Homo sapiens, MDA-MB-453, 1 hr incubation with compound
Protocol: MDA-MB453 cells were plated in 96-well cell culture plates at a density of 1×10^5 cells. Cells were allowed to attach, and growth media was replaced with serum free media. Compounds were added at the indicated concentrations. Following 1 hr incubation in the presence of compound, cells were collected. Cell lysates were prepared and processed according to manufacturer instruction (AlphaScreen® SureFire™ Phospho-ERK 1/2 Kit (Perkin Elmer).

Chain of wild type FGFR-4 (P22455 22-802): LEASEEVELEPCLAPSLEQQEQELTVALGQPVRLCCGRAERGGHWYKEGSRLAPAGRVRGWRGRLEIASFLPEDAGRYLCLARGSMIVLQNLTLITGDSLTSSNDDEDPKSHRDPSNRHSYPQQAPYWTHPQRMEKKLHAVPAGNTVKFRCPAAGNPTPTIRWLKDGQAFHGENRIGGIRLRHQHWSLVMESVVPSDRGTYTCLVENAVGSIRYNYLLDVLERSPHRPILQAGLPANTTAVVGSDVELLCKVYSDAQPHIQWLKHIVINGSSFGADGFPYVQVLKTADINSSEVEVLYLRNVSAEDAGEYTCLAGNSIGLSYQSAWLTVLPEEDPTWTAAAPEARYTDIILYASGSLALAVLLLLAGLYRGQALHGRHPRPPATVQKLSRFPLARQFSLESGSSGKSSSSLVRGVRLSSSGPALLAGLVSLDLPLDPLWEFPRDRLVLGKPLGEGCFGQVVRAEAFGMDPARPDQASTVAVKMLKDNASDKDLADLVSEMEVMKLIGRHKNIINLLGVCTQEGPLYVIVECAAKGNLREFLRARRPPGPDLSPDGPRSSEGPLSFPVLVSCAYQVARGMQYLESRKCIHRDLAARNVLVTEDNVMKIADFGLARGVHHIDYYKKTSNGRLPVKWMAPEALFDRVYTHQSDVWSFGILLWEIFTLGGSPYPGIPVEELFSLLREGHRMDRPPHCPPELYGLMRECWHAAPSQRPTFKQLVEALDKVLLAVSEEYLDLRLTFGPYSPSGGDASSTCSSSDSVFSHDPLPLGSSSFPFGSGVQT

Structure (SMILES) | IC50 (wild type FGFR-4) | IC50 [1]
C=CC(=O)Nc1ccccc1-c1ncc2cc(-c3c(Cl)c(OC)cc(OC)c3Cl)ccc2n1 [Compound 2] | 100 to 1000 nM | –
C=CC(=O)Nc1ccc(F)c(-c2cc3c(cn2)cc(-c2cc(OC)cc(OC)c2)c(=O)n3C(C)C)c1 [Compound 4] | 10 to 100 nM | 100 to 1000 nM
C=CC(=O)N(C)c1cccc(-c2ncc3cc(-c4c(Cl)c(OC)cc(OC)c4Cl)ccc3n2)c1 [Compound 6] | > 1000 nM | –
C=CC(=O)Nc1cccc(F)c1-c1ncc2cc(-c3c(Cl)c(OC)cc(OC)c3Cl)ccc2n1 [Compound 7] | – | 100 to 1000 nM
C=CC(=O)Nc1ccccc1-c1cc2c(cn1)cc(-c1cc(C(=O)NOC)ccc1Cl)c(=O)n2CC [Compound 9] | < 10 nM | 10 to 100 nM
C=CC(=O)Nc1ccc(F)c(-c2cc3c(cn2)cc(-c2cc(OC)cc(OC)c2F)c(=O)n3C(C)C)c1 [Compound 10] | < 10 nM | 10 to 100 nM
C=CC(=O)N1CCc2ccc(-c3ncc4cc(-c5c(Cl)c(OC)cc(OC)c5Cl)ccc4n3)cc21 [Compound 11] | 10 to 100 nM | –
C=CC(=O)N1CCOc2ccc(-c3ncc4cc(-c5c(Cl)c(OC)cc(OC)c5Cl)ccc4n3)cc21 [Compound 16] | 10 to 100 nM | –
C=CC(=O)Nc1ccc(F)c(-c2cc3c(cn2)cc(-c2c(F)c(OC)cc(OC)c2F)c(=O)n3C(C)C)c1 [Compound 17] | < 10 nM | < 10 nM
C=CC(=O)N1CCc2cc(F)c(-c3ncc4cc(-c5c(Cl)c(OC)cc(OC)c5Cl)ccc4n3)cc21 [Compound 18] | < 10 nM | 10 to 100 nM
C=CC(=O)N1CCOc2cc(C)c(-c3ncc4cc(-c5c(Cl)c(OC)cc(OC)c5Cl)ccc4n3)cc21 [Compound 24] | 10 to 100 nM | 10 to 100 nM
C=CC(=O)N1CCOc2cc(F)c(-c3ncc4cc(-c5c(Cl)c(OC)cc(OC)c5Cl)ccc4n3)cc21 [Compound 28] | < 10 nM | 10 to 100 nM
C=CC(=O)N1CCC(C)(C)c2ccc(-c3ncc4cc(-c5c(Cl)c(OC)cc(OC)c5Cl)ccc4n3)cc21 [Compound 33] | 100 to 1000 nM | –
C=CC(=O)N1CC(C)(C)Oc2ccc(-c3ncc4cc(-c5c(Cl)c(OC)cc(OC)c5Cl)ccc4n3)cc21 [Compound 34] | 10 to 100 nM | 10 to 100 nM
C=CC(=O)N1CCOc2ccc(-c3ncc4cc(-c5c(Cl)c(OC)cc(OC)c5Cl)c(OC)cc4n3)cc21 [Compound 36] | 10 to 100 nM | –
C=CC(=O)N1c2cc(-c3ncc4cc(-c5c(Cl)c(OC)cc(OC)c5Cl)ccc4n3)c(F)cc2OCC1C (stereo not drawn) [Compound 38] | 10 to 100 nM | –
C=CC(=O)N1CC(C)(C)Oc2cc(C)c(-c3ncc4cc(-c5c(Cl)c(OC)cc(OC)c5Cl)ccc4n3)cc21 [Compound 44] | 10 to 100 nM | –
C=CC(=O)Nc1ccccc1-c1ncc2cc(-c3c(Cl)c(OC)cc(OC)c3Cl)c(=O)n(C3CCCC3)c2n1 [Compound 46] | 10 to 100 nM | –
C=CC(=O)N1CC(C)(C)Oc2cc(F)c(-c3ncc4cc(-c5c(Cl)c(OC)cc(OC)c5Cl)ccc4n3)cc21 [Compound 48] | 10 to 100 nM | –
C=CC(=O)N1CCOc2ccc(-c3cc4c(cn3)CN(c3c(Cl)c(OC)cc(OC)c3Cl)C(=O)N4CC)cc21 [Compound 50] | < 10 nM | 10 to 100 nM
C=CC(=O)N1CCOc2ccc(-c3cc4c(cn3)cc(-c3c(Cl)c(OC)cc(OC)c3Cl)c(=O)n4C3CCCC3)cc21 [Compound 54] | 10 to 100 nM | –
C=CC(=O)N1CCOc2ccc(-c3ncc4cc(-c5c(Cl)c(OC)cc(OC)c5Cl)c(=O)n(C5CCCC5)c4n3)cc21 [Compound 55] | 10 to 100 nM | –
C=CC(=O)N1CCOc2ccc(-c3cc4c(cn3)nc(-c3c(Cl)c(OC)cc(OC)c3Cl)c(=O)n4C3CCCC3)cc21 [Compound 56] | < 10 nM | –

Other lines, results leading:

IC50 (wild type FGFR-4) | IC50 [1] | Structure (SMILES)
100 to 1000 nM | – | C=CC(=O)Nc1ccccc1-c1cc2ccc(-c3c(Cl)c(OC)cc(OC)c3Cl)cc2cn1 [Compound 1]
> 1000 nM | – | C=CC(=O)Nc1cccc(-c2ncc3cc(-c4c(Cl)c(OC)cc(OC)c4Cl)ccc3n2)c1 [Compound 3]
> 1000 nM | – | C=CC(=O)Nc1ccc(C)c(-c2ncc3cc(-c4c(Cl)c(OC)cc(OC)c4Cl)ccc3n2)c1 [Compound 5]
< 10 nM | < 10 nM | C=CC(=O)Nc1ccc(F)c(-c2cc3c(cn2)cc(-c2cc(OC)cc(OC)c2Cl)c(=O)n3CC)c1 [Compound 12]
100 to 1000 nM | – | C=CC(=O)Nc1cccc(-c2ncc3cc(-c4c(Cl)c(OC)cc(OC)c4Cl)cc(OC)c3n2)c1 [Compound 13]
100 to 1000 nM | – | C=CC(=O)Nc1ccccc1-c1ncc2cc(-c3c(Cl)c(OC)cc(OC)c3Cl)c(OC)cc2n1 [Compound 15]
< 10 nM | 10 to 100 nM | C=CC(=O)Nc1ccccc1-c1cc2c(cn1)cc(-c1c(Cl)c(OC)cc(OC)c1Cl)c(=O)n2CC [Compound 19]
< 10 nM | < 10 nM | C=CC(=O)Nc1cccc(-c2cc3c(cn2)cc(-c2c(Cl)c(OC)cc(OC)c2Cl)c(=O)n3CC)c1 [Compound 20]
< 10 nM | < 10 nM | C=CC(=O)Nc1ccc(F)c(-c2cc3c(cn2)cc(-c2c(F)c(OC)cc(OC)c2Cl)c(=O)n3CC)c1 [Compound 21]
10 to 100 nM | 10 to 100 nM | C=CC(=O)Nc1cccc(-c2cc3c(cn2)CN(c2c(Cl)c(OC)cc(OC)c2Cl)C(=O)N3CC)c1 [Compound 22]
< 10 nM | 10 to 100 nM | C=CC(=O)Nc1ccc(F)c(-c2cc3c(cn2)cc(-c2c(Cl)c(OC)cc(OC)c2Cl)c(=O)n3C)c1 [Compound 23]
< 10 nM | 10 to 100 nM | C=CC(=O)Nc1ccccc1-c1cc2c(cn1)cc(-c1c(Cl)c(OC)cc(OC)c1Cl)c(=O)n2C(C)C [Compound 25]
10 to 100 nM | – | C=CC(=O)N(C)c1ccccc1-c1cc2c(cn1)cc(-c1c(Cl)c(OC)cc(OC)c1Cl)c(=O)n2CC [Compound 26]
10 to 100 nM | 10 to 100 nM | C=CC(=O)Nc1ccc(C)c(-c2cc3c(cn2)cc(-c2c(Cl)c(OC)cc(OC)c2Cl)c(=O)n3CC)c1 [Compound 27]
10 to 100 nM | – | C=CC(=O)Nc1ccc(C)c(-c2cc3c(cn2)CN(c2c(Cl)c(OC)cc(OC)c2Cl)C(=O)N3CC)c1 [Compound 29]
– | < 10 nM | C=CC(=O)Nc1ccc(F)c(-c2ncc3cc(-c4c(Cl)c(OC)cc(OC)c4Cl)c(=O)n(CC)c3n2)c1 [Compound 30]
10 to 100 nM | – | C=CC(=O)Nc1ccc(F)c(-c2ncc3cc(-c4c(Cl)c(OC)cc(OC)c4Cl)c(=O)n(CC)c3n2)c1 [Compound 31]
< 10 nM | 10 to 100 nM | C=CC(=O)Nc1ccc(F)c(-c2cc3c(cn2)CN(c2c(Cl)c(OC)cc(OC)c2Cl)C(=O)N3CC)c1 [Compound 32]
– | 10 to 100 nM | C=CC(=O)N1CCc2ccc(-c3ncc4cc(-c5c(Cl)c(OC)cc(OC)c5Cl)c(=O)n(CC)c4n3)cc21 [Compound 35]
< 10 nM | – | C=CC(=O)N1CCOc2ccc(-c3cc4c(cn3)cc(-c3c(Cl)c(OC)cc(OC)c3Cl)c(=O)n4C)cc21 [Compound 37]
< 10 nM | < 10 nM | C=CC(=O)Nc1ccc(F)c(-c2cc3c(cn2)cc(-c2c(Cl)c(OC)cc(OC)c2Cl)c(=O)n3C(C)C)c1 [Compound 40]
< 10 nM | – | C=CC(=O)Nc1cc(F)c(F)c(-c2cc3c(cn2)cc(-c2c(Cl)c(OC)cc(OC)c2Cl)c(=O)n3CC)c1 [Compound 41]
< 10 nM | – | C=CC(=O)N1CCCc2ccc(-c3cc4c(cn3)cc(-c3c(Cl)c(OC)cc(OC)c3Cl)c(=O)n4CC)cc21 [Compound 45]
< 10 nM | 10 to 100 nM | C=CC(=O)N1CCOc2ccc(-c3cc4c(cn3)cc(-c3c(Cl)c(OC)cc(OC)c3Cl)c(=O)n4CC)cc21 [Compound 47]
10 to 100 nM | – | C=CC(=O)Nc1cc(OC(C)C)cc(-c2cc3c(cn2)cc(-c2c(Cl)c(OC)cc(OC)c2Cl)c(=O)n3C)c1 [Compound 49]
10 to 100 nM | – | CCn1c(=O)c(-c2c(Cl)c(OC)cc(OC)c2Cl)cc2cnc(-c3cccc(NC(=O)/C=C/CN(C)C)c3)cc21 [Compound 51]
– | 10 to 100 nM | C=CC(=O)N1CC(C)(C)Oc2ccc(-c3cc4c(cn3)cc(-c3c(Cl)c(OC)cc(OC)c3Cl)c(=O)n4CC)cc21 [Compound 52]
< 10 nM | 10 to 100 nM | C=CC(=O)N1c2cc(-c3cc4c(cn3)cc(-c3c(Cl)c(OC)cc(OC)c3Cl)c(=O)n4CC)c(F)cc2OCC1C (stereo not drawn) [Compound 53]

Reference: patent US9695165B2, “Inhibitors of the fibroblast growth factor receptor” (BLUEPRINT MEDICINES CORPORATION, priority 2014, dated 2017)
